Reference: US4217305A, “Phenylethanolamine derivatives” (Yamanouchi Pharmaceutical Co., Ltd., priority 1977, dated 1980)

Experiments:
Format in all cases: in vivo
β-Adrenergic = β-Adrenergic blocking action: antagonism of isoproterenol induced tachycardia in rats; details: reserpine pretreated, pentobarbital anesthetized rats, isoproterenol 0.1 μg/Kg iv.; for β-blocking (Rat) ED50: i.v.; for ED50: Rattus norvegicus, iv
Method: Bilateral vagotomy was performed at the neck. The effects of the test samples to antagonize the isoproterenol (0.1 μg/Kg iv.) induced tachycardia were measured and the results were shown in Table I.

[1] = tested on: spontaneously hypertensive rats; assay: Antihypertensive effects in spontaneously hypertensive rats, oral administration; details: at 10 mg/Kg p.o., mean ± S.E. of 5 to 10 animals, measured indirectly from the tail
Method: B. Antihypertensive effects in spontaneously hypertensive rats: Oral administration: The systolic blood pressure was measured indirectly from the tail using a programmed electro-sphygmanometer (Nacro Bio-Systems Inc., PE-300) on spontaneously hypertensive rats having a systolic blood pressure of higher than 150 mmHg, the result being shown in Table II.

α-Adrenergic = α-Adrenergic blocking action: antagonism of hypertensive response to phenylephrine in anesthetized rats; details: urethane anesthetized, pentolinium treated rats, phenylephrine 10 μg/Kg i.v.; for α-blocking (Rat) ED50: i.v.; for ED50: Rattus norvegicus, iv, read-out: α-blocking (Rat) ED50
Method: A. α-Adrenergic blocking action: (a) The blood pressure was measured in rats anesthetized with urethane and treated with pentolinium.

Row | Structure (SMILES) | β-blocking (Rat) ED50 (β-Adrenergic) | antihypertensive effect: change in systolic blood pressure ([1]; 10 mg/kg) | α-blocking (Rat) ED50 (α-Adrenergic) | ED50 (β-Adrenergic) | antihypertensive effect: change in systolic blood pressure [1] | ED50 (α-Adrenergic) | other results
1 | COc1ccccc1OCC(C)NCC(O)c1ccc(C)c(S(N)(=O)=O)c1 (stereo not drawn) [69(i2), 5-{1-hydroxy-2-[2-(2-methoxyphenoxy)-1-methylethylamino]ethyl}-2-methylbenzenesulfonamide] | 0.47 mg/kg | -32 ± 6.7 mmHg | 0.054 mg/kg |  |  |  | 
2 | Cc1ccc(C(O)CNC(C)C2COc3ccccc3O2)cc1S(N)(=O)=O (stereo not drawn) [Example 28] |  |  |  | 0.42 mg/kg | -23 ± 4.3 mmHg | 1.1 mg/kg | 
3 | COc1ccccc1CCC(C)NCC(O)c1ccc(C)c(S(N)(=O)=O)c1.Cl (stereo not drawn) [36(i1 + i2), 5-{1-Hydroxy-2-[3-(2-methoxyphenyl)-1-methylpropylamino]-ethyl}-2-methylbenzenesulfonamide hydrochloride] |  |  |  |  |  |  | β-blocking (Rat) ED50 (β-Adrenergic; hydrochloride): 0.095 mg/kg; antihypertensive effect: change in systolic blood pressure ([1]; hydrochloride, 10 mg/kg): -40 ± 6.6 mmHg; α-blocking (Rat) ED50 (α-Adrenergic; hydrochloride): 0.43 mg/kg
4 | COc1ccccc1OCC(C)(C)NCC(O)c1ccc(C)c(S(N)(=O)=O)c1 (stereo not drawn) [Example 9] |  |  |  | 0.26 mg/kg | -25 ± 4.2 mmHg | 0.89 mg/kg | 
5 | COc1ccccc1OCC(C)NCC(O)c1ccc(C)c(S(N)(=O)=O)c1 (stereo not drawn) [69(i1), 5-{1-hydroxy-2-[2-(2-methoxyphenoxy)-1-methylethylamino]ethyl}-2-methylbenzenesulfonamide] | 0.057 mg/kg | -28 ± 7.7 mmHg | 0.24 mg/kg |  |  |  | 
